Laboratory results: PMC10819888, “Benzimidazole-Based Derivatives as Apoptotic Antiproliferative Agents: Design, Synthesis, Docking, and Mechanistic Studies” (Molecules, 2024)

Experiments:
[1] = system: BT-549; test: NCI-60 five-dose assay; format: cell-based, human; settings: BT-549 (Breast Cancer), 48 h
[2] = system: Non-Small Cell Lung Cancer subpanel; test: NCI-60 five-dose assay, subpanel; format: cell-based, human
[3] = system: SNB-19; test: NCI-60 five-dose assay; format: cell-based, human; settings: SNB-19 (CNS Cancer), 48 h
[4] = system: UACC-257; test: NCI-60 five-dose assay; format: cell-based, human; settings: UACC-257 (Melanoma), 48 h
[5] = system: RXF 393; test: NCI-60 five-dose assay; format: cell-based, human; settings: RXF 393 (Renal Cancer), 48 h
[6] = system: SNB-75; test: NCI-60 five-dose assay; format: cell-based, human; settings: SNB-75 (CNS Cancer), 48 h
[7] = system: Melanoma subpanel; test: NCI-60 five-dose assay, subpanel; format: cell-based, human
[8] = system: T-47D; test: NCI-60 five-dose assay; format: cell-based, human; settings: T-47D (Breast Cancer), 48 h
[9] = system: NCI-H460; test: NCI-60 five-dose assay; format: cell-based, human; settings: NCI-H460 (Non-Small Cell Lung Cancer), 48 h
[10] = system: NCI-H226; test: NCI-60 five-dose assay; format: cell-based, human; settings: NCI-H226 (Non-Small Cell Lung Cancer), 48 h
[11] = system: HL-60(TB); test: NCI-60 five-dose assay; format: cell-based, human; settings: HL-60(TB) (Leukemia), 48 h
[12] = system: Colon Cancer subpanel; test: NCI-60 five-dose assay, subpanel; format: cell-based, human
[13] = system: NCI-H23; test: NCI-60 five-dose assay; format: cell-based, human; settings: NCI-H23 (Non-Small Cell Lung Cancer), 48 h
[14] = system: OVCAR-4; test: NCI-60 five-dose assay; format: cell-based, human; settings: OVCAR-4 (Ovarian Cancer), 48 h
[15] = biological target: BRAF^V600E; test: biochemical
Sequence of BRAF^V600E (P28028 whole entry V585E): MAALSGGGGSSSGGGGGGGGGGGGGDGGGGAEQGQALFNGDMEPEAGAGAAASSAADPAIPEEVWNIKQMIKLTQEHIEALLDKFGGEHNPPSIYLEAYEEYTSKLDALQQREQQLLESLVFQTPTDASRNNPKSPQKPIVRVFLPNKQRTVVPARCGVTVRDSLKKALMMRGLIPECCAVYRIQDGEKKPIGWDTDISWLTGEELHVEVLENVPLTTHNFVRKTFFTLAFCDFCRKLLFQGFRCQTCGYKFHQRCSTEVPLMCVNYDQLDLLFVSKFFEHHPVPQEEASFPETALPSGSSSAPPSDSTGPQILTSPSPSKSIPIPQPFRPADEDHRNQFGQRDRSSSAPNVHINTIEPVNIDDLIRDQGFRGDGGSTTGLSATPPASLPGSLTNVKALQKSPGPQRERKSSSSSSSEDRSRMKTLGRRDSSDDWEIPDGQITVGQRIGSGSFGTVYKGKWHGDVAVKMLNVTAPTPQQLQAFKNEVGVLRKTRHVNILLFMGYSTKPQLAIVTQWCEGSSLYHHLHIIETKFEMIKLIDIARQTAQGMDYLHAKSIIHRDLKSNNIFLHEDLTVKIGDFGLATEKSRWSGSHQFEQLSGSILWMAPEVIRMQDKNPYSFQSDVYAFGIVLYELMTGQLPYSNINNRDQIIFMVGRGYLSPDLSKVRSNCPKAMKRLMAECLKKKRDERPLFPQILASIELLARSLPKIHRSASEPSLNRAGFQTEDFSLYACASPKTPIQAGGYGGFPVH

[16] = system: M14; test: NCI-60 five-dose assay; format: cell-based, human; settings: M14 (Melanoma), 48 h
[17] = system: OVCAR-3; test: NCI-60 five-dose assay; format: cell-based, human; settings: OVCAR-3 (Ovarian Cancer), 48 h
[18] = system: TK-10; test: NCI-60 five-dose assay; format: cell-based, human; settings: TK-10 (Renal Cancer), 48 h
[19] = system: CCRF-CEM; test: NCI-60 five-dose assay; format: cell-based, human; settings: CCRF-CEM (Leukemia), 48 h
[20] = system: ACHN; test: NCI-60 five-dose assay; format: cell-based, human; settings: ACHN (Renal Cancer), 48 h
[21] = system: HOP-92; test: NCI-60 five-dose assay; format: cell-based, human; settings: HOP-92 (Non-Small Cell Lung Cancer), 48 h
[22] = system: CAKI-1; test: NCI-60 five-dose assay; format: cell-based, human; settings: CAKI-1 (Renal Cancer), 48 h
[23] = system: Renal Cancer subpanel; test: NCI-60 five-dose assay, subpanel; format: cell-based, human
[24] = system: OVCAR-8; test: NCI-60 five-dose assay; format: cell-based, human; settings: OVCAR-8 (Ovarian Cancer), 48 h
[25] = system: IGROV1; test: NCI-60 five-dose assay; format: cell-based, human; settings: IGROV1 (Ovarian Cancer), 48 h
[26] = system: SK-MEL-2; test: NCI-60 five-dose assay; format: cell-based, human; settings: SK-MEL-2 (Melanoma), 48 h
[27] = Homo sapiens, read-out: GI50 Conc. per Cell Line
[28] = Homo sapiens, read-out: LC50 (the source's name)

## O=C(NN=Cc1ccc(Cl)cc1)c1ccc2[nH]c(-c3ccc(Cl)cc3)nc2c1 [Compound 4e, N′-(4-Chlorobenzylidene)-2-(4-chlorophenyl)-1H-benzimidazole-5-carbohydrazide]
[1]
  TGI: 2.13 µM
[1]; [27]
  GI50: 4.93 µM
[1]; [28]
  CC50: 75.8 µM
[2]; Homo sapiens, Non-Small Cell Lung Cancer, average sensitivity of all subpanel cell lines, read-out: GI50 Subpanel MID b
  GI50: 1.9 µM
[2]; Non-Small Cell Lung Cancer subpanel
  GI50 Selectivity Ratio (MID a/MID b): 0.94
[3]; [27]
  GI50: 2.34 µM
[3]; [28]
  CC50: 13.3 µM
[3]
  TGI: 5.06 µM
[4]; [27]
  GI50: 2.14 µM
[4]; [28]
  CC50: 11.6 µM
[4]
  TGI: 4.72 µM
[5]; [27]
  GI50: 1.61 µM
[5]; [28]
  CC50: 6.64 µM
[5]
  TGI: 3.27 µM
[6]; [27]
  GI50: 1.59 µM
[6]; [28]
  CC50: 8.22 µM
[6]
  TGI: 3.62 µM
[7]; Homo sapiens, Melanoma, average sensitivity of all subpanel cell lines, read-out: GI50 Subpanel MID b
  GI50: 1.77 µM
[7]; Melanoma subpanel
  GI50 Selectivity Ratio (MID a/MID b): 1.01
[8]; Homo sapiens, T47D, read-out: GI50 Conc. per Cell Line
  GI50: 1.79 µM
[8]; Homo sapiens, T47D, read-out: LC50 (the source's name)
  CC50: 8.21 µM
[8]
  TGI: 3.83 µM
[9]; Homo sapiens
  LC50: 6.3 µM
[9]; [27]
  GI50: 1.56 µM
[9]
  TGI: 3.13 µM
[10]; [27]
  GI50: 1.77 µM
[10]; [28]
  CC50: 6.86 µM
[10]
  TGI: 3.48 µM
[11]
  TGI: 6.53 µM
[11]; [27]
  GI50: 1.85 µM
[11]; [28]
  CC50: 54.8 µM
[12]; Colon Cancer subpanel
  GI50 Selectivity Ratio (MID a/MID b): 1.04
[12]; Homo sapiens, Colon Cancer, average sensitivity of all subpanel cell lines, read-out: GI50 Subpanel MID b
  GI50: 1.72 µM
[13]; [27]
  GI50: 1.93 µM
[13]; [28]
  CC50: 10.8 µM
[13]
  TGI: 4.43 µM
[14]; [27]
  GI50: 1.74 µM
[14]; [28]
  CC50: 6.23 µM
[14]
  TGI: 3.29 µM
[15]
  IC50: 0.2 ± 0.02 µM
[16]; [27]
  GI50: 1.65 µM
[16]; [28]
  CC50: 8.96 µM
[16]
  TGI: 3.84 µM
[17]; [27]
  GI50: 1.84 µM
[17]; [28]
  CC50: 6.28 µM
[17]
  TGI: 3.39 µM
[18]; [27]
  GI50: 2.06 µM
[18]; [28]
  CC50: 8.98 µM
[18]
  TGI: 4.30 µM
[19]
  TGI: 9.03 µM
[19]; [27]
  GI50: 1.43 µM
[19]; [28]
  CC50: 65.8 µM
[20]
  TGI: 3.17 µM
[20]; [27]
  GI50: 1.73 µM
[20]; [28]
  CC50: 5.78 µM
[21]
  TGI: 3.53 µM
[21]; Homo sapiens
  LC50 (50% lethal concentration): 7.47 µM
[21]; [27]
  GI50: 1.67 µM
[22]
  TGI: 3.29 µM
[22]; [27]
  GI50: 1.7 µM
[22]; [28]
  CC50: 6.37 µM
[23]; Homo sapiens, Renal Cancer, average sensitivity of all subpanel cell lines, read-out: GI50 Subpanel MID b
  GI50: 1.77 µM
[23]; Renal Cancer subpanel
  GI50 Selectivity Ratio (MID a/MID b): 1.01
[24]; [27]
  GI50: 2.11 µM
[24]; [28]
  CC50: 16.5 µM
[24]
  TGI: 4.74 µM
[25]; Homo sapiens, IGROV-1, read-out: GI50 Conc. per Cell Line
  GI50: 1.5 µM
[25]; Homo sapiens, IGROV-1, read-out: LC50 (the source's name)
  CC50: 5.92 µM
[25]
  TGI: 2.98 µM
[26]; Homo sapiens
  LC50: 11.4 µM
[26]; [27]
  GI50: 2.09 µM
[26]
  TGI: 4.64 µM
